Results taken from patent publication US7109380B2, “Cyclopentenedione antifungal compounds and methods for their use” (The University of Mississippi, priority 2004, dated 2006).

What was measured:
Assay in all cases: 96-well microtiter fungal growth assay;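 as to Mean percent fungal growth inhibition of Botrytis cinerea: percent relative to untreated positive growth controls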;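 as to Mean percent fungal growth inhibition of Colletotrichum acutatum: percent relative to untreated positive growth controls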;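 as to Mean percent fungal growth inhibition of Colletotrichum fragariae: percent relative to untreated positive growth controls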;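 as to Mean percent fungal growth inhibition of Colletotrichum gloeosporoides: percent relative to untreated positive growth controls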;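 as to Mean percent fungal growth inhibition of Fusarium oxysporum: percent relative to untreated positive growth controls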;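 as to Mean percent fungal growth inhibition of Phomopsis viticola: percent relative to untreated positive growth controls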
Assay type in all cases: cell-based
Phomopsis obscurans = system: Phomopsis obscurans
Description: (§1) Pathogen collection. Isolates of Colletotrichum acutatum Simmonds, Colletotrichum fragariae Brooks, and Colletotrichum gloeosporioides (Penz.) Penz. & Sacc. in Penz. were obtained from B. J. Smith, USDA, ARS, Small Fruit Research Station, Poplarville, Mass. Colletotrichum fragariae (isolate CF63), C. acutatum (isolate CAGoff), and C. gloeosporioides (isolate CG162) were used for all pathogen and bioautography studies. Isolate CF63 is one of the most virulent isolates at infecting strawberry plants and inducing both crown and fruit rot (Smith and Black, 1990). CF63, CAGoff, and CG162 were used as standard test isolates because of our extensive knowledge of these isolates and their known fungicide sensitivity profiles in both bioautography and microtiter formats. The three Colletotrichum species were isolated from strawberry (Fragaria xananassa Duchesne). Botrytis cinerea Pers.:Fr, was isolated from commercial grape (Vitis vinifera L.) and Fusarium oxysporum Schlechtend:Fr from orchid (Cynoches sp.) by David E. Wedge, USDA ARS Natural Products Utilization Research Unit. Phomopsis viticola (Sacc.) and P. obscurans (Ellis & Everh.) Sutton were from Mike A. Ellis, Ohio State University, Wooster, Ohio. Fungi were grown on potato-dextrose agar (PDA, Difco, Detroit Mich.) in 9 cm petri dishes and incubated in a growth chamber at 24±2° C. and under cool-white fluorescent lights ([…]·m^−2·sec^−1 light) with 12-h photoperiod.
(§2) Inoculum preparation. Conidia were harvested from 7–10 day-old cultures by flooding plates with 5 mL of sterile distilled water and dislodging conidia by softly brushing the colonies with an L-shaped glass rod. Conidial suspensions were filtered through sterile miracloth (Calbiochem-Novabiochem Corp., La Jolla Calif.) to remove mycelia. Conidia concentrations were determined photometrically, from a standard curve based on the absorbance at 625 nm and suspensions were then adjusted with sterile distilled water to a concentration of 1.0×10^6 conidia/mL.
(§3) Microtiter assay. A standardized 96-well microtiter plate assay developed for discovery of natural product fungicidal agents. A 96-well microtiter assay was used to determine sensitivity of B. cinerea, C. acutatum, C. fragariae, C. gloeosporioides, F. oxysporum, Phomopsis viticola, and P. obscurans to the various antifungal agents in comparison with known fungicidal standards. Vinclozolin, captan, and thiabendazole, which represent three different modes of action, were used as standards in this experiment. Each fungus was challenged in a dose-response format using test compounds where the final treatment concentrations were 0.3, 3.0 and 30.0 μM. Microtiter plates (Nunc MicroWell, untreated; Roskilde, Denmark) were covered with a plastic lid and incubated in a growth chamber at 24±1 C and 12 h photoperiod under 60±5 μmol light. Growth was then evaluated by measuring absorbance of each well at 620 nm using a microplate photometer (Packard Spectra Count, Packard Instrument Co., Downers Grove, Ill.).
(§4) Microbioassay Experimental Design. Chemical sensitivity of each fungus 96-well microtiter assay is used to determine sensitivity of B. cinerea, C. acutatum, C. fragariae, C. gloeosporioides, F. oxysporum, Phomopsis viticola, and P. obscurans. Each chemical is evaluated in duplicate at each dose (0.3, 3.0 and 30.0 μM) and repeated twice in time. Sixteen wells containing broth and inoculum serves as positive controls, eight wells containing solvent at the appropriate concentration and broth without inoculum are used as negative controls. […] Treatments are arranged as a split-plot design replicated twice in time. Whole-plots were fungal isolates and sub-plots are chemicals. Each dose level and response time is analyzed separately. The SAS system's analysis of variance procedure (Statistical Analysis System, Cary, N.C.) is used to identify significant factors and Fisher's protected LSD is used to separate means.

Phomopsis viticola = system: Phomopsis viticola;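 also: percent relative to untreated positive growth controls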
Description: as §1, §2, §3, §4

Colletotrichum acutatum = system: Colletotrichum acutatum;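 also: percent relative to untreated positive growth controls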
Description: as §1, §2, §3
as §4, with “controls. Mean absorbance values and standard errors is used to evaluate fungal growth at 48 hrs and 72 hrs except for P. obscurans and P. viticola the data are recorded at 120 hrs.” for “controls.”, “The SAS system's analysis of variance procedure (Statistical Analysis System, Cary, N.C.) is used to identify significant factors and Fisher's protected LSD is used to separate means.” left out

[1] = system: Colletotrichum gloeosporioides;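 also: percent relative to untreated positive growth controls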
Description: as §1, §2, §3
as §4, with “controls. Mean absorbance values and standard errors is used to evaluate fungal growth at 48 hrs and 72 hrs except for P. obscurans and P. viticola the data are recorded at 120 hrs.” for “controls.”, “The SAS system's analysis of variance procedure (Statistical Analysis System, Cary, N.C.) is used to identify significant factors and Fisher's protected LSD is used to separate means.” left out

Fusarium oxysporum = system: Fusarium oxysporum;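 also: percent relative to untreated positive growth controls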
Description: as §1, §2, §3
as §4, with “controls. Mean absorbance values and standard errors is used to evaluate fungal growth at 48 hrs and 72 hrs except for P. obscurans and P. viticola the data are recorded at 120 hrs.” for “controls.”, “The SAS system's analysis of variance procedure (Statistical Analysis System, Cary, N.C.) is used to identify significant factors and Fisher's protected LSD is used to separate means.” left out

Colletotrichum fragariae = system: Colletotrichum fragariae;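 also: percent relative to untreated positive growth controls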
Description: as §1, §2, §3
as §4, with “controls. Mean absorbance values and standard errors is used to evaluate fungal growth at 48 hrs and 72 hrs except for P. obscurans and P. viticola the data are recorded at 120 hrs.” for “controls.”, “The SAS system's analysis of variance procedure (Statistical Analysis System, Cary, N.C.) is used to identify significant factors and Fisher's protected LSD is used to separate means.” left out

Botrytis cinerea = system: Botrytis cinerea;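 also: percent relative to untreated positive growth controls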
Description: as §1, §2, §3
as §4, with “controls. Mean absorbance values and standard errors is used to evaluate fungal growth at 48 hrs and 72 hrs except for P. obscurans and P. viticola the data are recorded at 120 hrs.” for “controls.”, “The SAS system's analysis of variance procedure (Statistical Analysis System, Cary, N.C.) is used to identify significant factors and Fisher's protected LSD is used to separate means.” left out

Cc1cc(C2CC2)nc(Nc2ccccc2)n1 [Cyprodinil]
Percent change in fungal growth vs control (negative = inhibition) (Phomopsis obscurans; 0.3 μm, 120 hrs): −51.4 ± 5.9% | Percent change in fungal growth vs control (negative = inhibition) (Phomopsis obscurans; 0.3 μm, 144 hrs): −46.3 ± 6.0% | Percent change in fungal growth vs control (negative = inhibition) (Phomopsis obscurans; 3.0 μm, 120 hrs): −64.5 ± 10.7% | Percent change in fungal growth vs control (negative = inhibition) (Phomopsis obscurans; 3.0 μm, 144 hrs): −72.6 ± 3.9% | Percent change in fungal growth vs control (negative = inhibition) (Phomopsis obscurans; 30 μm, 120 hrs): −86.8 ± 1.3% | Percent change in fungal growth vs control (negative = inhibition) (Phomopsis obscurans; 30 μm, 144 hrs): −81.5 ± 2.5% | Mean percent fungal growth inhibition of Phomopsis viticola (Phomopsis viticola; 0.3 μm, 120 hrs): −219 ± 122.1% | Mean percent fungal growth inhibition of Phomopsis viticola (Phomopsis viticola; 3.0 μm, 120 hrs): −184.6 ± 87.0% | Mean percent fungal growth inhibition of Phomopsis viticola (Phomopsis viticola; 3.0 μm, 144 hrs): 451.7 ± 331.5% | Mean percent fungal growth inhibition of Phomopsis viticola (Phomopsis viticola; 30 μm, 120 hrs): −176.2 ± 48.2% | Mean percent fungal growth inhibition of Phomopsis viticola (Phomopsis viticola; 30 μm, 144 hrs): 80.4 ± 111.6% | Mean percent fungal growth inhibition of Colletotrichum acutatum (Colletotrichum acutatum; 0.3 μm, 48 hrs): −102.2 ± 0.9% | Mean percent fungal growth inhibition of Colletotrichum acutatum (Colletotrichum acutatum; 0.3 μm, 72 hrs): −94.5 ± 4.4% | Mean percent fungal growth inhibition of Colletotrichum acutatum (Colletotrichum acutatum; 3.0 μm, 48 hrs): −98.1 ± 0.7% | Mean percent fungal growth inhibition of Colletotrichum acutatum (Colletotrichum acutatum; 3.0 μm, 72 hrs): −98.3 ± 0.6% | Mean percent fungal growth inhibition of Colletotrichum acutatum (Colletotrichum acutatum; 30 μm, 48 hrs): −99.7 ± 0.7% | Mean percent fungal growth inhibition of Colletotrichum acutatum (Colletotrichum acutatum; 30 μm, 72 hrs): −99.0 ± 0.3% | Mean percent fungal growth inhibition of Colletotrichum gloeosporoides ([1]; 0.3 μm, 48 hrs): −89.9 ± 2.7% | Mean percent fungal growth inhibition of Colletotrichum gloeosporoides ([1]; 0.3 μm, 72 hrs): −62.9 ± 9.3% | Mean percent fungal growth inhibition of Colletotrichum gloeosporoides ([1]; 3.0 μm, 48 hrs): −85.4 ± 6.6% | Mean percent fungal growth inhibition of Colletotrichum gloeosporoides ([1]; 3.0 μm, 72 hrs): −76.4 ± 6.3% | Mean percent fungal growth inhibition of Colletotrichum gloeosporoides ([1]; 30 μm, 48 hrs): −95.1 ± 1.0% | Mean percent fungal growth inhibition of Colletotrichum gloeosporoides ([1]; 30 μm, 72 hrs): −91.1 ± 1.6% | Mean percent fungal growth inhibition of Fusarium oxysporum (Fusarium oxysporum; 0.3 μm, 48 hrs): 16.4 ± 3.9% | Mean percent fungal growth inhibition of Fusarium oxysporum (Fusarium oxysporum; 0.3 μm, 72 hrs): 7.9 ± 2.9% | Mean percent fungal growth inhibition of Fusarium oxysporum (Fusarium oxysporum; 3.0 μm, 48 hrs): 2.6 ± 2.6% | Mean percent fungal growth inhibition of Fusarium oxysporum (Fusarium oxysporum; 3.0 μm, 72 hrs): 1.8 ± 2.7% | Mean percent fungal growth inhibition of Fusarium oxysporum (Fusarium oxysporum; 30 μm, 48 hrs): −67.4 ± 4.3% | Mean percent fungal growth inhibition of Fusarium oxysporum (Fusarium oxysporum; 30 μm, 72 hrs): −41.5 ± 5.1% | Mean percent fungal growth inhibition of Colletotrichum fragariae (Colletotrichum fragariae; 0.3 μm, 48 hrs): −94.1 ± 1.4% | Mean percent fungal growth inhibition of Colletotrichum fragariae (Colletotrichum fragariae; 0.3 μm, 72 hrs): −54.1 ± 19.3% | Mean percent fungal growth inhibition of Colletotrichum fragariae (Colletotrichum fragariae; 3.0 μm, 48 hrs): −89.0 ± 1.6% | Mean percent fungal growth inhibition of Colletotrichum fragariae (Colletotrichum fragariae; 3.0 μm, 72 hrs): −76.7 ± 4.7% | Mean percent fungal growth inhibition of Colletotrichum fragariae (Colletotrichum fragariae; 30 μm, 48 hrs): −95.5 ± 0.5% | Mean percent fungal growth inhibition of Colletotrichum fragariae (Colletotrichum fragariae; 30 μm, 72 hrs): −92.5 ± 3.2% | Mean percent fungal growth inhibition of Botrytis cinerea (Botrytis cinerea; 0.3 μm, 48 hrs): −96.6 ± 2.3% | Mean percent fungal growth inhibition of Botrytis cinerea (Botrytis cinerea; 0.3 μm, 72 hrs): 26.56 ± 14.1% | Mean percent fungal growth inhibition of Botrytis cinerea (Botrytis cinerea; 3.0 μm, 48 hrs): −90.2 ± 3.3% | Mean percent fungal growth inhibition of Botrytis cinerea (Botrytis cinerea; 3.0 μm, 72 hrs): −81.4 ± 9.2% | Mean percent fungal growth inhibition of Botrytis cinerea (Botrytis cinerea; 30 μm, 48 hrs): −94.2 ± 2.1% | Mean percent fungal growth inhibition of Botrytis cinerea (Botrytis cinerea; 30 μm, 72 hrs): −96.2 ± 1.5%
